Results reported in patent US8822517B2, “Arylosulfonamides for the treatment of CNS diseases” (Adamed SP. Z O.O., priority 2010, dated 2014).

Assays:
[1] = molecular target: T1, serotonine transporter (SERT) receptor (Homo sapiens, UniProt P31645); assay: Binding assay SERT (h), [3H]imipramine, CHO cells; conditions: read-out: SERT [%]
T1 construct: expressed in transfected cells; host or cells: CHO cells
Outline: (§1)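 Compounds were screened at 1×10^−6 M, and bound radioactivity was measured by scintillation counting. Specific binding equals total binding minus nonspecific binding obtained with an excess of unlabelled ligand.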

sigma σ receptor = assay: Binding assay σ (non-selective), [3H]DTG, rat cerebral cortex; conditions: percent inhibition of control specific binding; compounds tested at 1×10^−6 M
Outline: as §1

adrenergic α1 receptor = assay: Binding assay α1 (non-selective), [3H]prazosin, rat cerebral cortex; conditions: percent inhibition of control specific binding; compounds tested at 1×10^−6 M
Outline: as §1

muscarinic M3 receptor = molecular target: T2, muscarinic M3 receptor (Homo sapiens, UniProt P20309); assay: Binding assay M3 (h), [3H]4-DAMP, CHO cells; conditions: read-out: M3 [%]
T2 construct: expressed in transfected cells; host or cells: CHO cells
Outline: as §1

dopaminergic D2 receptor [2] = molecular target: T3, dopaminergic D2 receptor (Homo sapiens, UniProt P14416); assay: Cellular functional assay, dopaminergic D2 receptor (agonism/antagonism); type: cell-based; conditions: HEK293; for activation at 1 µM: agonist effect, percent of control specific agonist response (3 μM dopamine for control), 1×10^−6 M, D2S (h), HEK-293 cells, read-out: D2-ag [%]; for inhibition at 1 µM: read-out: D2-antag. [%]
Protocol: (§2) The compounds were tested at the concentration of 1×10^−6M.
(§3) In the Tables ag refers to agonism, and antag to antagonism).
Target sequence in this assay (P14416 whole entry): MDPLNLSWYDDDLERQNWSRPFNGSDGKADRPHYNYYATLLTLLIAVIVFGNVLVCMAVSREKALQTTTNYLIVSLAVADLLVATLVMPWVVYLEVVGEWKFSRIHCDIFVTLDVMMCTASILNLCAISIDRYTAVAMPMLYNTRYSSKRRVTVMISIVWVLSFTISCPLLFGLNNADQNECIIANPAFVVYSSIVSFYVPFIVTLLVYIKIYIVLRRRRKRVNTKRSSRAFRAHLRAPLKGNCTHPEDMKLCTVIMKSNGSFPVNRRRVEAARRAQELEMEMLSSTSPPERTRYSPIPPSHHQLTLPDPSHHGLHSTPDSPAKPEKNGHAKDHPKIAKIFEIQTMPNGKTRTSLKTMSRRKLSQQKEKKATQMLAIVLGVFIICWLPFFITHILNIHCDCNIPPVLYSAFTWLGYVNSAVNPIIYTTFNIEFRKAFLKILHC

[3] = molecular target: T4, serotoninergic 5-HT2A receptor (Homo sapiens, UniProt P28223); assay: Cellular functional assay, serotoninergic 5-HT2A receptor (agonism/antagonism); type: cell-based; conditions: for activation at 1 µM: read-out: 5-HT2A -ag [%]; for inhibition at 1 µM: read-out: 5-HT2A -antag [%]
Protocol: (§4) […]. The compounds were tested at the concentration of 1×10^−6M.
(§5) Conditions and methodology (by reference to the literature) of cellular functional assays are given in Table 13 and the tests results for representative compounds are given in Table 14 (dopaminergic receptor D2), in Table 15 (dopaminergic receptor D3), in Table 16 (serotoninergic receptor 5-HT1A), in Table 17 (serotoninergic receptor 5-HT2A), in Table 18 (serotoninergic receptor 5-HT6), in Table 19 (serotoninergic receptor 5-HT7), in Table 20 (adrenergic α1 receptor), in Table 21 (adrenergic α2C receptor), in Table 22 (histaminergic H1 receptor) and in Table 23 (serotoninergic 5-HT2C receptor). In the Tables ag refers to agonism, and antag to antagonism).

[4] = molecular target: T5, serotoninergic 5-HT7 receptor (Homo sapiens, UniProt P34969); assay: Cellular functional assay, serotoninergic 5-HT7 receptor (agonism/antagonism); type: cell-based; conditions: for activation at 1 µM: agonist effect, percent of control specific agonist response, compounds tested at 1×10^−6M, read-out: 5-HT7-ag [%]; for inhibition at 1 µM: read-out: 5-HT7-antag. [%]
Protocol: as §2, §3

adrenergic α1A receptor = molecular target: T6, adrenergic α1A receptor (Homo sapiens, UniProt P35348); assay: Cellular functional assay, adrenergic α1A receptor (agonism/antagonism); type: cell-based; conditions: for activation at 1 µM: agonist effect, percent of control specific agonist response, compounds tested at 1×10^−6M, read-out: α1A -ag [%]; for inhibition at 1 µM: read-out: α1A -antag. [%]
T6 sequence (P35348 1-466): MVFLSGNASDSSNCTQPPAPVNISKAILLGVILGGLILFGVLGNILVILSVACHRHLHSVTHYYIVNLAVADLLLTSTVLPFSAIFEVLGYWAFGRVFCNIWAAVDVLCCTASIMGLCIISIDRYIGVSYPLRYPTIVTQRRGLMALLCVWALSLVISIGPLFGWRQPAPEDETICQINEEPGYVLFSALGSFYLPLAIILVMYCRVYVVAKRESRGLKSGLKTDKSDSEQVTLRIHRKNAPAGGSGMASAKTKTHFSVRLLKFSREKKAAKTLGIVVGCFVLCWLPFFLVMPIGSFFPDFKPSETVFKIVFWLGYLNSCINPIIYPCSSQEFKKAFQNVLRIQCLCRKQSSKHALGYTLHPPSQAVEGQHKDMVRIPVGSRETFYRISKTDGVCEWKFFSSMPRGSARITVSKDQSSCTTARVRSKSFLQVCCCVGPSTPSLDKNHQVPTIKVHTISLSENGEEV
Protocol: as §4, §5

[5] = molecular target: T5, serotoninergic 5-HT7 receptor; assay: Binding assay 5-HT7 (h), [3H]LSD, CHO cells; parameters: expressed in transfected cells; host or cells: CHO cells; conditions: read-out: 5-HT7
Outline: as §1

adrenergic α2C receptor = molecular target: T7, adrenergic α2C receptor (Homo sapiens, UniProt P18825); assay: Binding assay α2C (h), [3H]RX 821002, CHO cells; parameters: expressed in transfected cells; host or cells: CHO cells; conditions: read-out: α2C [%]
T7 sequence (P18825 1-462): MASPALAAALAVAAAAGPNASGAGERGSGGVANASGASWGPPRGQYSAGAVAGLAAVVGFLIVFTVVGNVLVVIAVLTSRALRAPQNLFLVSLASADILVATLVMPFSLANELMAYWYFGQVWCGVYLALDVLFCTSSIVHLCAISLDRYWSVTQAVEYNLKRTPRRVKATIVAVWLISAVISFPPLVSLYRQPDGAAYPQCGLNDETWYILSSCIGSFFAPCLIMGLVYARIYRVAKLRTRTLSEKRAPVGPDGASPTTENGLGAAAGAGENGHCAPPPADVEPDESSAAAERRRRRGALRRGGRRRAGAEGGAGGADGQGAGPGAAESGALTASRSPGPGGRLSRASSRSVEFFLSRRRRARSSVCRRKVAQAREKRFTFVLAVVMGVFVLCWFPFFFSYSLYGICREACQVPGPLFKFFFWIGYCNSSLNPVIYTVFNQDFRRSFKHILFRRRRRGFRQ
Outline: as §1

dopaminergic D2 receptor [6] = molecular target: T3, dopaminergic D2 receptor; assay: Binding assay D2S (h), [3H]methyl-spiperone, HEK-293 cells; parameters: expressed in transfected cells; host or cells: HEK-293 cells; conditions: read-out: D2 [%]
Outline: as §1
Target sequence in this assay (P14416 1-414 isoform P14416-2): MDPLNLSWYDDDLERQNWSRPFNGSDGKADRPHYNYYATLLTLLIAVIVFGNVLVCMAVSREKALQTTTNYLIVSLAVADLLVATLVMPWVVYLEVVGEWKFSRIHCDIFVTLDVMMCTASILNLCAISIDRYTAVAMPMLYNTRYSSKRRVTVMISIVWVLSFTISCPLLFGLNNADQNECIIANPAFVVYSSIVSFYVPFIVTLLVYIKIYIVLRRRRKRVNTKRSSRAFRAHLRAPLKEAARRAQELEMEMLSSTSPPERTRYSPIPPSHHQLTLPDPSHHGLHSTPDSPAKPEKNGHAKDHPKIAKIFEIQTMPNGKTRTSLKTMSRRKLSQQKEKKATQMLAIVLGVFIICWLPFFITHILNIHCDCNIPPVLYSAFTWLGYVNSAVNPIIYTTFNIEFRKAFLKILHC

[7] = molecular target: T4, serotoninergic 5-HT2A receptor; assay: Binding assay 5-HT2A (h), [3H]ketanserin, HEK-293 cells; parameters: expressed in transfected cells; host or cells: HEK-293 cells; conditions: read-out: 5-HT2A
Outline: as §1

[8] = molecular target: histaminergic H1 receptor (Homo sapiens, UniProt P35367); assay: Binding assay H1 (h), [3H]pyrilamine, HEK-293 cells; parameters: expressed in transfected cells; host or cells: HEK-293 cells; conditions: read-out: H1 [%]
Outline: as §1

dopaminergic D3 receptor = dopaminergic D3 receptor (Homo sapiens, UniProt P35462); assay: Cellular functional assay, dopaminergic D3 receptor (agonism/antagonism); type: cell-based; conditions: for inhibition at 1 µM: CHO, read-out: D3-antag. [%]; for activation at 1 µM: agonist effect, percent of control specific agonist response (300 nM dopamine for control), 1×10^−6 M, D3 (h), CHO cells, read-out: D3-ag [%]
Protocol: as §2, §3

Sequence of histaminergic H1 receptor (P35367 whole entry): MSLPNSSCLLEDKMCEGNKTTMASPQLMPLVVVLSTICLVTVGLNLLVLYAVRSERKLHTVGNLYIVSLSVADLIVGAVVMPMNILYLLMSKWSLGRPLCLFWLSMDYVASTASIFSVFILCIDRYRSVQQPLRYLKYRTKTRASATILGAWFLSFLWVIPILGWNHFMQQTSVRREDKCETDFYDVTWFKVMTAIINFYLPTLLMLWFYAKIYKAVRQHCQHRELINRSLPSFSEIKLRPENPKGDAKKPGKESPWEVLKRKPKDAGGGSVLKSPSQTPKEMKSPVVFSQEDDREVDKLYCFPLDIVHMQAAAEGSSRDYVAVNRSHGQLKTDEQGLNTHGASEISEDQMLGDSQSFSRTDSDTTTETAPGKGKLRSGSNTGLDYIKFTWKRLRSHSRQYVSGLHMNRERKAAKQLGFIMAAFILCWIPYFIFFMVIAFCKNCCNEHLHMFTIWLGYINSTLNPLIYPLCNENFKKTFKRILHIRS
Sequence of dopaminergic D3 receptor (P35462 whole entry): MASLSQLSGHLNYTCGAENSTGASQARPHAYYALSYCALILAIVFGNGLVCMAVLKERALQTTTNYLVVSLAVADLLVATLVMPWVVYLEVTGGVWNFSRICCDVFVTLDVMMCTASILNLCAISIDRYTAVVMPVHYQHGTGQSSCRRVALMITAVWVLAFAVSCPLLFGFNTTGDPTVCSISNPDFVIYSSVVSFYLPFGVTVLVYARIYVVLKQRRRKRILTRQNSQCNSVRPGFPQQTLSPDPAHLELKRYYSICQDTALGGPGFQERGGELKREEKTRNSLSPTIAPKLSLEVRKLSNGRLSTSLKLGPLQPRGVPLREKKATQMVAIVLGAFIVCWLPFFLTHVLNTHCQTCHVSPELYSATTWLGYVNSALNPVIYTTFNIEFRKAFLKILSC
T4 sequence (P28223 whole entry): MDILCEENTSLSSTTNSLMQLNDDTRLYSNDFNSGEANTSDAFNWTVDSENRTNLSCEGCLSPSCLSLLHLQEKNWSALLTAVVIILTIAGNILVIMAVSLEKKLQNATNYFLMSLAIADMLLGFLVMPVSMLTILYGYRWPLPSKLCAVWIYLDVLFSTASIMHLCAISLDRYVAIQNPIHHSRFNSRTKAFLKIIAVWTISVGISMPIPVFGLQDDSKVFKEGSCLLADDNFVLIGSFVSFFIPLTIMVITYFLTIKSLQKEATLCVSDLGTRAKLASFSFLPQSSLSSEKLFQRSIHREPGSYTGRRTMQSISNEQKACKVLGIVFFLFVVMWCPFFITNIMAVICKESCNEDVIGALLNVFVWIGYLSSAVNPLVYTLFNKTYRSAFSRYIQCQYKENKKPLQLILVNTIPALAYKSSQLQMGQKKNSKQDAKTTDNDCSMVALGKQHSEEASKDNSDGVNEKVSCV
T5 sequence (P34969 whole entry): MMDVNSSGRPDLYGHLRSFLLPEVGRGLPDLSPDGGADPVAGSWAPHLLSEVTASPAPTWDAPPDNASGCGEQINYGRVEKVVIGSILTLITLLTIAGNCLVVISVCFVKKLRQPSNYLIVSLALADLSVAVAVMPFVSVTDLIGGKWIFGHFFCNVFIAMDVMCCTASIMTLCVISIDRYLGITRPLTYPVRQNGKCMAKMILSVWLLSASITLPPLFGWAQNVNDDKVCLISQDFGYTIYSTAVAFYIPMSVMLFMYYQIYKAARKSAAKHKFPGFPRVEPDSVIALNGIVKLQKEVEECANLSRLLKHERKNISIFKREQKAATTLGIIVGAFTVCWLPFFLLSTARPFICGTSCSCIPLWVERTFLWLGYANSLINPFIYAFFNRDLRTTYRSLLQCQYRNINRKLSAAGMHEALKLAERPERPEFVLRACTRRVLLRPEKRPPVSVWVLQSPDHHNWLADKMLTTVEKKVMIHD
T1 sequence (P31645 whole entry): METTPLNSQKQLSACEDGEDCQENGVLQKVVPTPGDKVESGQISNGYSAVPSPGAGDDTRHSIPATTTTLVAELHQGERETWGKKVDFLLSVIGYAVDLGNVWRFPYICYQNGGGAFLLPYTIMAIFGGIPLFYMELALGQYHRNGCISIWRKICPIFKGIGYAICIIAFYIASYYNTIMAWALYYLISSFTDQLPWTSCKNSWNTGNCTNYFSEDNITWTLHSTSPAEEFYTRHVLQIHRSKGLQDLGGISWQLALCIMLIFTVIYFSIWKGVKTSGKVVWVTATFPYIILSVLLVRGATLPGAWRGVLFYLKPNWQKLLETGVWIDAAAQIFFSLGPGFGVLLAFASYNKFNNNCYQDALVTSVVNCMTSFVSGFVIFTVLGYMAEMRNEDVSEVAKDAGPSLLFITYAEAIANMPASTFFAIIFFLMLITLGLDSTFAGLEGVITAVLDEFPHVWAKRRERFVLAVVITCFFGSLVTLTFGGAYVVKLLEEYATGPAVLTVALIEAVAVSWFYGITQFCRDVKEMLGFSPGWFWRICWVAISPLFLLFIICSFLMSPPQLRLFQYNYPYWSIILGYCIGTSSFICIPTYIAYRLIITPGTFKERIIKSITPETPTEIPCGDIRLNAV
T2 sequence (P20309 whole entry): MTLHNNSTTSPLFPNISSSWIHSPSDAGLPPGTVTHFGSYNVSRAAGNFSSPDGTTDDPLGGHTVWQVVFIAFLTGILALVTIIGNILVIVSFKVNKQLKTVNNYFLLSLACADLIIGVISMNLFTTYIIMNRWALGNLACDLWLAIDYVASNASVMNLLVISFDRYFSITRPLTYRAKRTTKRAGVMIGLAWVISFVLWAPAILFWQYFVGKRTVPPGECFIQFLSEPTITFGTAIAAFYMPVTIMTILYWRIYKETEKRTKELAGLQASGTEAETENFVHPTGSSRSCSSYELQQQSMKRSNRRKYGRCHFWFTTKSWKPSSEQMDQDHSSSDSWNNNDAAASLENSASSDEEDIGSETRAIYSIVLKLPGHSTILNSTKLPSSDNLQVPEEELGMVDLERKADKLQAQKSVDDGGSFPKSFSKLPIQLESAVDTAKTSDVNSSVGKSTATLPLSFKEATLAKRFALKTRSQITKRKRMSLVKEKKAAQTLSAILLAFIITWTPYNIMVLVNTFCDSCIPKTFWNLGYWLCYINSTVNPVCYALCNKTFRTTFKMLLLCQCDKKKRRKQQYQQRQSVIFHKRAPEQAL

Row | SMILES | inhibition at 1 µM [1] [%] | σ [%] (sigma σ receptor) | α1 [%] (adrenergic α1 receptor) | inhibition at 1 µM (muscarinic M3 receptor) [%] | activation at 1 µM (dopaminergic D2 receptor [2]) [%] | inhibition at 1 µM (dopaminergic D2 receptor [2]) [%] | activation at 1 µM [3] [%] | inhibition at 1 µM [3] [%] | activation at 1 µM [4] [%] | inhibition at 1 µM [4] [%] | activation at 1 µM (adrenergic α1A receptor) [%] | inhibition at 1 µM (adrenergic α1A receptor) [%] | inhibition at 1 µM [5] [%] | inhibition at 1 µM (adrenergic α2C receptor) [%] | inhibition at 1 µM (dopaminergic D2 receptor [6]) [%] | inhibition at 1 µM [7] [%] | inhibition at 1 µM [8] [%] | inhibition at 1 µM (dopaminergic D3 receptor) [%] | activation at 1 µM (dopaminergic D3 receptor) [%]
1 | O=S(=O)(NCCCCN1CCN(c2noc3ccccc23)CC1)c1cccc2ccccc12 [Compound 13, N-(4-(4-(1,2-Benzoxazol-3-yl)piperazin-1-yl)butyl)naphthalene-1-sulphonamide] | 7 | 87 | 102 | -1 | 2 | 95 | 2 | 100 | 1 | 95 | 0 | 100 | 100 | 99 | 99 | 100 | 84 | – | –
2 | O=c1[nH]c2ccc(S(=O)(=O)NCCCCN3CCN(c4noc5ccccc45)CC3)cc2o1 [Compound 16, N-(4-(4-(1,2-Benzoxazol-3-yl)piperazin-1-yl)butyl)-2-oxo-3H-1,3-benzoxazole-6-sulphonamide] | -3 | 2 | 101 | -1 | 4 | 98 | -1 | 98 | -1 | 80 | 0 | 100 | 99 | 101 | 99 | 100 | 97 | – | –
3 | Cc1c(S(=O)(=O)NCCCCN2CCN(c3nsc4ccccc34)CC2)sc2ccc(F)cc12 [Compound 65, N-[4-[4-(1,2-Benzothiazol-3-yl)piperazin-1-yl]butyl]-5-fluoro-3-methylbenzothiophene-2-sulphonamide] | 57 | 62 | 95 | 8 | 10 | 74 | -2 | 98 | -2 | 91 | 0 | 98 | 98 | 104 | 99 | 101 | 95 | – | –
4 | O=S(=O)(NCCCCN1CCN(c2noc3ccccc23)CC1)c1ccc2cc(Cl)ccc2c1 [Compound 79, N-[4-[4-(1,2-Benzoxazol-3-yl)piperazin-1-yl]butyl]-6-chloro-naphthalene-2-sulphonamide] | 3 | 37 | 88 | 12 | 3 | 77 | -2 | 97 | -2 | 97 | – | – | 97 | 106 | 99 | 91 | 96 | 77 | -9
5 | O=S(=O)(NCCCCN1CCN(c2cccc3[nH]ccc23)CC1)c1ccc2cc(Cl)ccc2c1 [Compound 358, 6-Chloro-N-[4-[4-(1H-indol-4-yl)piperazin-1-yl]butyl]naphthalene-2-sulphonamide] | 40 | 84 | 88 | 17 | 30 | 84 | -1 | 57 | 10 | 28 | – | – | 94 | 101 | 96 | 99 | 74 | 35 | 47
6 | O=S(=O)(NCCCCN1CCN(c2cccc3[nH]ccc23)CC1)c1ccc(F)cc1 [Compound 359, 4-Fluoro-N-[4-[4-(1H-indol-4-yl)piperazin-1-yl]butyl]benzenesulphonamide] | 33 | 85 | 97 | 63 | 39 | 96 | – | – | 8 | 43 | 1 | 100 | 95 | 99 | 96 | 79 | 60 | 79 | 25
7 | O=c1[nH]c2cccc(N3CCN(CCCNS(=O)(=O)c4ccc5ccccc5c4)CC3)c2[nH]1 [Compound 424, N-[3-[4-(2-oxo-1,3-dihydrobenzimidazol-4-yl)piperazin-1-yl]propyl]naphthalene-2-sulphonamide] | -3 | −3 | 93 | 7 | 44 | 97 | – | – | 18 | 43 | 39 | 76 | 95 | 67 | 97 | 66 | 28 | 18 | 70
